Measured values as given in article PMC8398451, “Molecular Engineering of Curcumin, an Active Constituent of Curcuma longa L. (Turmeric) of the Family Zingiberaceae with Improved Antiproliferative Activity” (Plants, 2021).
Read-outs that look alike come from different tables or passages of the source.

What was measured:
MCF7 = assay: NCI antiproliferative SRB assay, Breast Cancer panel; assay type: cell-based, Human
RXF 393 = assay: NCI antiproliferative SRB assay, Renal Cancer panel; assay type: cell-based, Human
SK-OV-3 = assay: NCI antiproliferative SRB assay, Ovarian Cancer panel; assay type: cell-based, Human
CCRF-CEM = assay: NCI antiproliferative SRB assay, Leukemia panel; assay type: cell-based, Human
HCT-116 = assay: NCI antiproliferative SRB assay, Colon Cancer panel; assay type: cell-based, Human
MDA-MB-435 = assay: NCI antiproliferative SRB assay, Melanoma panel; assay type: cell-based
ACHN = assay: NCI antiproliferative SRB assay, Renal Cancer panel; assay type: cell-based, Human
A498 = assay: as above; assay type: cell-based, Human
Leukemia cell line panel = assay: NCI antiproliferative assay, panel summary; assay type: cell-based, Human; conditions: for GI50: Homo sapiens
HS 578T = assay: NCI antiproliferative SRB assay, Breast Cancer panel; assay type: cell-based, Human
UACC-257 = assay: NCI antiproliferative SRB assay, Melanoma panel; assay type: cell-based, Human
[1] = test system: CNS Cancer cell line panel; assay: NCI antiproliferative assay, panel summary; assay type: cell-based, Human
MOLT-4 = assay: NCI antiproliferative SRB assay, Leukemia panel; assay type: cell-based, Human
NCI-H522 = assay: NCI antiproliferative SRB assay, Non-Small Cell Lung Cancer panel; assay type: cell-based, Human
RPMI-8226 = assay: NCI antiproliferative SRB assay, Leukemia panel; assay type: cell-based, Human
A549/ATCC = assay: NCI antiproliferative SRB assay, Non-Small Cell Lung Cancer panel; assay type: cell-based, Human
TK-10 = assay: NCI antiproliferative SRB assay, Renal Cancer panel; assay type: cell-based, Human
SNB-75 = assay: NCI antiproliferative SRB assay, CNS Cancer panel; assay type: cell-based, Human
[2] = test system: Colon Cancer cell line panel; assay: NCI antiproliferative assay, panel summary; assay type: cell-based, Human
MALME-3M = assay: NCI antiproliferative SRB assay, Melanoma panel; assay type: cell-based, Human
DU-145 = assay: NCI antiproliferative SRB assay, Prostate Cancer panel; assay type: cell-based, Human
[3] = test system: Prostate Cancer cell line panel; assay: NCI antiproliferative assay, panel summary; assay type: cell-based, Human
BT-549 = assay: NCI antiproliferative SRB assay, Breast Cancer panel; assay type: cell-based, Human
HOP-62 = assay: NCI antiproliferative SRB assay, Non-Small Cell Lung Cancer panel; assay type: cell-based, Human
[4] = Homo sapiens, 5-dose 0.01-100 µM
[5] = Homo sapiens, 5-dose 0.01-100 µM, read-out: LC50 (the source's name)
[6] = Homo sapiens, 5-dose assay, read-out: Sub Panel MID b (mean GI50 of panel)

Q: For COc1cc(/C=C/c2cc(/C=C/c3ccc(O)c(OC)c3)n(C(=O)Nc3ccc(C(F)(F)F)cc3)n2)ccc1O [3c], which TGI (MCF7; 5-dose 0.01-100 µM) is on record?
A: 10.7 µM

Q: What about the GI50 (MCF7; [4]) of the same compound?
A: 1.97 µM

Q: And the CC50 (MCF7; [5])?
A: 72 µM

Q: What about the “%GI” value (MCF7; one dose 10 µM) of the same compound?
A: 77.08%

Q: And the “GP (growth percent)” value (MCF7; one dose 10 µM)?
A: 22.92

Q: What about the TGI (RXF 393; 5-dose 0.01-100 µM) of the same compound?
A: 3.73 µM

Q: What about the GI50 (RXF 393; [4]) of the same compound?
A: 1.98 µM

Q: What about the “%GI” value (RXF 393; one dose 10 µM) of the same compound?
A: 77.34%

Q: And the “GP (growth percent)” value (RXF 393; one dose 10 µM)?
A: 22.66

Q: What about the TGI (SK-OV-3; 5-dose 0.01-100 µM) of the same compound?
A: 66.7 µM

Q: What about the GI50 (SK-OV-3; [4]) of the same compound?
A: 4.02 µM

Q: What about the CC50 (SK-OV-3; [5]) of the same compound?
A: > 100 µM

Q: And the “%GI” value (SK-OV-3; one dose 10 µM)?
A: 33.91%

Q: And the “GP (growth percent)” value (SK-OV-3; one dose 10 µM)?
A: 66.09

Q: And the GI50 (CCRF-CEM; [4])?
A: 2.63 µM

Q: What about the CC50 (CCRF-CEM; [5]) of the same compound?
A: > 100 µM

Q: What about the “%GI” value (CCRF-CEM; one dose 10 µM) of the same compound?
A: 96.58%

Q: What about the “GP (growth percent)” value (CCRF-CEM; one dose 10 µM) of the same compound?
A: 3.42

Q: What about the TGI (HCT-116; 5-dose 0.01-100 µM) of the same compound?
A: 2.94 µM

Q: And the GI50 (HCT-116; [4])?
A: 1.51 µM

Q: And the CC50 (HCT-116; [5])?
A: 5.7 µM

Q: And the “%GI” value (HCT-116; one dose 10 µM)?
A: 153.67%

Q: And the “GP (growth percent)” value (HCT-116; one dose 10 µM)?
A: −53.67

Q: And the TGI (MDA-MB-435; 5-dose 0.01-100 µM)?
A: 7.06 µM

Q: What about the GI50 (MDA-MB-435; Homo sapiens) of the same compound?
A: 2.35 µM

Q: What about the CC50 (MDA-MB-435; [5]) of the same compound?
A: 33.4 µM

Q: What about the “%GI” value (MDA-MB-435; one dose 10 µM) of the same compound?
A: 72.15%

Q: What about the “GP (growth percent)” value (MDA-MB-435; one dose 10 µM) of the same compound?
A: 27.85

Q: And the TGI (ACHN; 5-dose 0.01-100 µM)?
A: 7.08 µM

Q: And the GI50 (ACHN; [4])?
A: 2.48 µM

Q: And the CC50 (ACHN; [5])?
A: > 100 µM

Q: What about the “GP (growth percent)” value (ACHN; one dose 10 µM) of the same compound?
A: 65.82

Q: What about the GI50 (A498; [4]) of the same compound?
A: 5.81 µM

Q: And the CC50 (A498; [5])?
A: 57.3 µM

Q: And the “%GI” value (A498; one dose 10 µM)?
A: -8.03%

Q: And the “GP (growth percent)” value (A498; one dose 10 µM)?
A: 108.03

Q: What about the “Mean % GI” value (Leukemia cell line panel; 10 µM) of the same compound?
A: 91.31%

Q: What about the “Selectivity Ratio (MID a:MID b)” value (Leukemia cell line panel; 5-dose assay) of the same compound?
A: 1.27

Q: What about the GI50 (Leukemia cell line panel; 5-dose assay, read-out: GI50 values, range over the leukemia panel) of the same compound?
A: 1.48 to 2.73 µM

Q: What about the GI50 (Leukemia cell line panel; 5-dose assay, read-out: Sub Panel MID b (mean GI50 of panel)) of the same compound?
A: 2.24 µM

Q: And the TGI (HS 578T; 5-dose 0.01-100 µM)?
A: 60.6 µM

Q: What about the GI50 (HS 578T; [4]) of the same compound?
A: 5.1 µM

Q: And the CC50 (HS 578T; [5])?
A: > 100 µM

Q: What about the “%GI” value (HS 578T; one dose 10 µM) of the same compound?
A: 48.11%

Q: What about the “GP (growth percent)” value (HS 578T; one dose 10 µM) of the same compound?
A: 51.89

Q: What about the TGI (UACC-257; 5-dose 0.01-100 µM) of the same compound?
A: 14.0 µM

Q: What about the GI50 (UACC-257; [4]) of the same compound?
A: 4.01 µM

Q: What about the CC50 (UACC-257; [5]) of the same compound?
A: 42 µM

Q: And the “%GI” value (UACC-257; one dose 10 µM)?
A: 74.99%

Q: And the “GP (growth percent)” value (UACC-257; one dose 10 µM)?
A: 25.01

Q: And the “Mean % GI” value ([1]; 10 µM)?
A: 53.38%

Q: And the “Selectivity Ratio (MID a:MID b)” value ([1]; 5-dose assay)?
A: 1.02

Q: What about the GI50 [1, 6] of the same compound?
A: 2.78 µM

Q: What about the TGI (MOLT-4; 5-dose 0.01-100 µM) of the same compound?
A: 20.0 µM

Q: And the GI50 (MOLT-4; [4])?
A: 2.73 µM

Q: And the CC50 (MOLT-4; [5])?
A: > 100 µM

Q: What about the “%GI” value (MOLT-4; one dose 10 µM) of the same compound?
A: 88.91%

Q: And the “GP (growth percent)” value (MOLT-4; one dose 10 µM)?
A: 11.09

Q: What about the TGI (NCI-H522; 5-dose 0.01-100 µM) of the same compound?
A: 4.65 µM

Q: What about the GI50 (NCI-H522; [4]) of the same compound?
A: 1.78 µM

Q: And the CC50 (NCI-H522; [5])?
A: 40.8 µM

Q: What about the “%GI” value (NCI-H522; one dose 10 µM) of the same compound?
A: 92.68%

Q: What about the “GP (growth percent)” value (NCI-H522; one dose 10 µM) of the same compound?
A: 7.32

Q: What about the TGI (RPMI-8226; 5-dose 0.01-100 µM) of the same compound?
A: 6.59 µM

Q: And the GI50 (RPMI-8226; [4])?
A: 2.09 µM

Q: And the CC50 (RPMI-8226; [5])?
A: > 100 µM

Q: And the “%GI” value (RPMI-8226; one dose 10 µM)?
A: 100.21%

Q: And the “GP (growth percent)” value (RPMI-8226; one dose 10 µM)?
A: −0.21

Q: And the TGI (A549/ATCC; 5-dose 0.01-100 µM)?
A: >100 µM

Q: What about the GI50 (A549/ATCC; [4]) of the same compound?
A: 4.11 µM

Q: What about the LC50 (50% lethal concentration) (A549/ATCC; [4]) of the same compound?
A: > 100 µM

Q: What about the “%GI” value (A549/ATCC; one dose 10 µM) of the same compound?
A: 57.05%

Q: What about the “GP (growth percent)” value (A549/ATCC; one dose 10 µM) of the same compound?
A: 42.95

Q: And the TGI (TK-10; 5-dose 0.01-100 µM)?
A: 14.8 µM

Q: What about the GI50 (TK-10; [4]) of the same compound?
A: 4.13 µM

Q: And the CC50 (TK-10; [5])?
A: 59.4 µM

Q: And the “%GI” value (TK-10; one dose 10 µM)?
A: 22.31%

Q: What about the “GP (growth percent)” value (TK-10; one dose 10 µM) of the same compound?
A: 77.69

Q: And the TGI (SNB-75; 5-dose 0.01-100 µM)?
A: 66.0 µM

Q: And the GI50 (SNB-75; [4])?
A: 2.99 µM

Q: What about the CC50 (SNB-75; [5]) of the same compound?
A: > 100 µM

Q: And the “%GI” value (SNB-75; one dose 10 µM)?
A: 28.20%

Q: What about the “GP (growth percent)” value (SNB-75; one dose 10 µM) of the same compound?
A: 71.80

Q: What about the “Mean % GI” value ([2]; 10 µM) of the same compound?
A: 73.05%

Q: And the “Selectivity Ratio (MID a:MID b)” value ([2]; 5-dose assay)?
A: 1.31

Q: And the GI50 [2, 6]?
A: 2.17 µM

Q: And the TGI (MALME-3M; 5-dose 0.01-100 µM)?
A: 8.40 µM

Q: And the GI50 (MALME-3M; [4])?
A: 2.89 µM

Q: What about the CC50 (MALME-3M; [5]) of the same compound?
A: 32.6 µM

Q: What about the “%GI” value (MALME-3M; one dose 10 µM) of the same compound?
A: 47.73%

Q: And the “GP (growth percent)” value (MALME-3M; one dose 10 µM)?
A: 52.27

Q: What about the TGI (DU-145; 5-dose 0.01-100 µM) of the same compound?
A: 13.0 µM

Q: What about the GI50 (DU-145; [4]) of the same compound?
A: 3.67 µM

Q: What about the CC50 (DU-145; [5]) of the same compound?
A: 45.3 µM

Q: And the “%GI” value (DU-145; one dose 10 µM)?
A: 52.45%

Q: And the “GP (growth percent)” value (DU-145; one dose 10 µM)?
A: 47.55

Q: And the “Mean % GI” value ([3]; 10 µM)?
A: 57.21%

Q: And the “Selectivity Ratio (MID a:MID b)” value ([3]; 5-dose assay)?
A: 0.82

Q: And the GI50 [3, 6]?
A: 3.44 µM

Q: And the TGI (BT-549; 5-dose 0.01-100 µM)?
A: 3.67 µM

Q: What about the GI50 (BT-549; [4]) of the same compound?
A: 1.96 µM

Q: What about the CC50 (BT-549; [5]) of the same compound?
A: 6.86 µM

Q: What about the “%GI” value (BT-549; one dose 10 µM) of the same compound?
A: 81.03%

Q: What about the “GP (growth percent)” value (BT-549; one dose 10 µM) of the same compound?
A: 18.97

Q: And the TGI (HOP-62; 5-dose 0.01-100 µM)?
A: 16.2 µM

Q: And the GI50 (HOP-62; [4])?
A: 3.6 µM

Q: And the CC50 (HOP-62; [5])?
A: > 100 µM

Q: What about the “%GI” value (HOP-62; one dose 10 µM) of the same compound?
A: 37.13%

Q: And the “GP (growth percent)” value (HOP-62; one dose 10 µM)?
A: 62.87
